Assay type in all cases: cell-based
In one test the test system is CEM/dCK-. In words: MMT or WST-1 assay at 72 hr. Particulars: CEM/dCK- versus CCRF-CEM. On the technique in general: Tetrazolium dyes change colour on reduction, which living cells bring about.
The nature of test [1]: 3H-Thymidine Incorporation Assay (24 hr drug, wash, another 48 hr; 72 hr assay). Particulars: for Resistance Factor = Ratio of dCK- on Wild-type CCRF-CEM / Factor (Resistance Factor = Ratio of dCK- on Wild-type CCRF-CEM): ratio of IC50 CEM/dCK- to IC50 CCRF-CEM; for Factor (Resistance Factor = Ratio of dCK- on Wild-type CCRF-CEM): 24 h exposure.
For the next test, the system named is SF-268. Nature of the test: MTT assay at 72 hr. Particulars: Homo sapiens, SF-268, read-out: IC50 (MTT at 72 hr) SF-268, 24 h exposure, single experiments.
A further test has as its system CEM cells. Nature of the test: CellTiter 96 cell proliferation assay, 48 h exposure. As to conditions: for effect of es transport inhibitor NBMPR on resistance of CEM cells: presence of NBMPR. As to the method:
The chemosensitivity of suspension cells lines (e.g., CEM or CEM-derivatives) is assessed using the CellTiter 96 ? proliferation assay. […] Chemosensitivity is expressed as 50% (ECso) of the dose response curve determined, e.g., using GraphPad Prism 2.01 (GraphPad Software, San Diego, Calif.). Adherent cell lines (e.g., DU145 or DU145^R) are seeded (˜10^5 cells) in triplicate dishes, 24 h before drug exposure. Growth inhibition is determined by trypsinization and counting cells electronically.

[2] abbreviates: CCRF-CEM, read-out: IC50 (3H-TdR incorporation at 72 hr) CCRF-CEM 24 h, CCRF-CEM T-cell leukemia, 24 hr exposure to drug, wash, another 48 hr.
The mark [3] stands for this setting: CCRF-CEM, read-out: IC50 (3H-TdR incorporation at 72 hr) CEM/dCK- 24 h, CEM/dCK- (CCRF-CEM deoxycytidine kinase-deficient), 24 hr exposure to drug, wash, another 48 hr.
[4] abbreviates: MCF7, read-out: IC50 (3H-TdR incorporation at 72 hr) MCF-7 24 h, MCF-7 human breast carcinoma, 24 hr exposure to drug, wash, another 48 hr.
[5] abbreviates: NCI-H460, read-out: IC50 (3H-TdR incorporation at 72 hr) H-460 24 h, H-460 human lung carcinoma, 24 hr exposure to drug, wash, another 48 hr.
Setting [6] is: SF-268, read-out: IC50 (3H-TdR incorporation at 72 hr) SF-268 24 h, SF-268 human central nervous system tumor, 24 hr exposure to drug, wash, another 48 hr.

Each structure is given as a SMILES string. Several values for one entry are separate records, joined by “and”; a condition that tells them apart may be missing. Identical values can stand only once. Like-named read-outs stand apart in the source and are kept apart here.

What is called EC50 is the concentration at which the effect is half-maximal.

Turning to `CCCCC(C)(C)C(=O)OC[C@H]1OC[C@@H](n2ccc(N)nc2=O)O1.Cl` [Compound 107, 2,2-DIMETHYLHEXANOIC ACID 4-(4-AMINO-2-OXO-2H-PYRI- MIDIN-1-YL)-1,3-DI- OXOLAN-2-YLMETHYL ESTER HYDROCHLORIDE], in the test on CEM/dCK-, the “Resistance Factor” value is 2,042.
Take `COc1ccc(C(OC)(OC)OC[C@H]2OC[C@@H](n3ccc(N)nc3=O)O2)cc1` [Compound 195, 4-AMINO-1-{2-[DI- METHOXY-(4-METHOXY-PHE- NYL)-METHOXYMETHYL]-[1,3]DI- OXOLAN-4-YL}-1#H!-PYRI- MIDIN-2-ONE]: the Resistance Factor = Ratio of dCK- on Wild-type CCRF-CEM in test [1] was > 1560.
As for `CCOC(OCC)(OCC)OC[C@H]1OC[C@@H](n2ccc(N)nc2=O)O1` [Compound 199, 4-Amino-1-(2-tri-ethoxymethoxymethyl-[1,3]di-oxolan-4-yl)-1H-pyri-midin-2-one], the Resistance Factor = Ratio of dCK- on Wild-type CCRF-CEM in test [1] was > 10600.
In the case of `CC(=O)Oc1ccc(COC(=O)Nc2ccn([C@@H]3CO[C@H](COC(=O)OCc4ccc(OC(C)=O)cc4)O3)c(=O)n2)cc1` [Compound 202, Acetic acid 4-(1-{2-[4-(Acetyloxy)benzyloxycarbonyloxymethyl]-[1,3]dioxolan-4-yl}2-oxo-1,2-dihydropyrimidin-4-ylcarbamoyloxymethyl)-phenyl ester], the Resistance Factor = Ratio of dCK- on Wild-type CCRF-CEM in test [1] was > 1000.
With `Nc1ccn([C@@H]2CO[C@H](COC(=O)c3ccc([N+](=O)[O-])cc3)O2)c(=O)n1` [Compound 204, 4-NITRO-BENZOIC ACID 4-(4-A- MINO-2-OXO-2H-PYRI- MIDIN-1-YL)-[1,3]DI- OXOLAN-2-YL METHYL ESTER], the IC50 turned out to be 0.012 µM in test [1] (setting [2]); 19 µM in test [1] (setting [3]); 0.0086 µM in test [1] (setting [4]); 0.015 µM in test [1] (setting [5]); 0.025 µM in test [1] (setting [6]). The “Resistance Factor = Ratio of dCK- on Wild-type CCRF-CEM” value in test [1] is 1 600.
Take `Nc1ccn([C@@H]2CO[C@H](COC(=O)c3ccccc3Cc3ccccc3)O2)c(=O)n1` [Compound 220, BIPHENYL-2-CARBOXYLIC ACID 4-(4-AMINO-2-OXO-2H-PYRI- MIDIN-1-YL)-[1,3]DI- OXOLAN-2-YL METHYL ESTER]: the Resistance Factor = Ratio of dCK- on Wild-type CCRF-CEM in test [1] was > 28600.
With `Nc1ccn([C@@H]2CO[C@H](COC(=O)C3(c4ccccc4)CC3)O2)c(=O)n1` [Compound 223, 1-PHENYL-CYCLO- PROPANECARBOXYLIC ACID 4-(4-AMINO-2-OXO-2H-PYRI- MIDIN-1-YL)-[1,3]DI- OXOLAN-2-YL METHYL ESTER], the Resistance Factor = Ratio of dCK- on Wild-type CCRF-CEM in test [1] was > 1610.
Turning to `CC(C)(C(=O)OC[C@H]1OC[C@@H](n2ccc(N)nc2=O)O1)c1ccccc1[N+](=O)[O-].Cl` [Compound 224, 2-METHYL-2-(2-NITRO-PHE- NYL)-PROPIONIC ACID 4-(4-AMINO-2-OXO-2H-PYRI- MIDIN-1-YL)-[1,3]DI- OXOLAN-2-YLMETHYL ESTER HYDROCHLORIDE SALT], the IC50 in test [1] (setting [2]) was 0.1 µM; in test [1] (setting [4]), 6.9 µM; in test [1] (setting [5]) it was 5.3 µM; in test [1] (setting [6]), 21 µM. Also, in test [1], the Resistance Factor = Ratio of dCK- on Wild-type CCRF-CEM is > 1000.
For `Cc1ccc(C)c(OCCCC(C)(C)C(=O)OC[C@H]2OC[C@@H](n3ccc(N)nc3=O)O2)c1` [Compound 237], the IC50 in test [1] (setting [2]) is 0.0016 µM; in test [1] (setting [3]), 18 µM; in test [1] (setting [4]), ≤ 0.0001 µM; in test [1] (setting [5]), 0.0026 µM; in test [1] (setting [6]), 0.088 µM; with SF-268 it was 3300 nM. In addition, the “Resistance Factor = Ratio of dCK- on Wild-type CCRF-CEM” value in test [1] is 11,250.
Consider `CCCCC[C@H]1CC[C@H](C(=O)OC[C@H]2OC[C@@H](n3ccc(N)nc3=O)O2)CC1` [Compound 240, 4-PENTYL-CYCLO- HEXANECARBOXYLIC ACID 4-(4-AMINO-2-OXO-2H-PYRI- MIDIN-1-YL)-[1,3]DI- OXOLAN-2-YL METHYL ESTER], for which the “Resistance Factor = Ratio of dCK- on Wild-type CCRF-CEM” value in test [1] is listed as “≧25 000”.
On the same count and under the same terms, under `CC(CCCCCCc1ccccc1)C(=O)OC[C@H]1OC[C@@H](n2ccc(N)nc2=O)O1` (some centres unmarked) [Compound 245, 2-METHYL-8-PHENYL-OCTANOIC ACID 4-(4-AMINO-2-OXO-2H-PYRI- MIDIN-1-YL)-[1,3]DI- OXOLAN-2-YL METHYL ESTER] stands > 6800.
In the case of `CC(C)C[C@H](N)C(=O)Nc1ccn([C@@H]2CO[C@H](CO)O2)c(=O)n1` [Compound 257, 2-AMINO-4-METHYL-PENTANOIC ACID[1-(2-HYDROXY- METHYL-[1,3]DIOXO- LAN-4-yl)-2-OXO-1,2-DIHYDRO-PYRI- MIDIN-4-YL]-AMIDE], the “Resistance Factor” value in the test with CEM/dCK- is on record as >19.
In the case of `CC(C)C[C@H](NC(=O)[C@H](C)NC(=O)OC(C)(C)C)C(=O)Nc1ccn([C@@H]2CO[C@H](CO)O2)c(=O)n1` [Compound 263, (1-{1-[1-(2-HYDROXY- METHYL-[1,3]DIOXO- LAN-4-YL)-2-OXO-1,2-DI- HYDRO-PYRIMIDIN-4-YLCARBA- MOYL]-3-METHYL-BUTYL- CARBAMOYL}-ETHYL)-CARBAMIC ACID TERT-BUTYL ESTER], in the test on CEM/dCK-, the “Resistance Factor” value is >5 and >7.
For the compound `CC(C)CCCCC(=O)Nc1ccn([C@@H]2CO[C@H](COC(=O)CCCCC(C)C)O2)c(=O)n1` [Compound 276, 6-METHYL-HEPTANOIC ACID 4-[4-(6-METHYL-HEPTANOYL- AMINO)-2-OXO-2H-PYRI- MIDIN-1-YL]-[1,3]DI- OXOLAN-2-YL METHYL ESTER], the IC50 in test [1] (CCRF-CEM, read-out: IC50 in μM (3H-TdR incorporation at 72 hr) CCRF-CEM 24 h, CCRF-CEM T-cell leukemia, 24 h exposure to drug, wash, another 48 hr) turned out to be 0.028 µM; in test [1] (MCF7, read-out: IC50 in μM (3H-TdR incorporation at 72 hr) MCF-7 (72 h), MCF-7 human breast carcinoma, 72 h exposure), 0.0017 µM; in test [1] (NCI-H460, read-out: IC50 in μM (3H-TdR incorporation at 72 hr) H-460 (72 h), H-460 human lung carcinoma, 72 h exposure), 0.025 µM; in test [1] (SF-268, read-out: IC50 in μM (3H-TdR incorporation at 72 hr) SF-268 (72 h), SF-268 human central nervous system tumor, 72 h exposure), 0.018 µM. Also, the “Factor (Resistance Factor = Ratio of dCK- on Wild-type CCRF-CEM)” value in test [1] came to 957.
Consider `CC(C)(C)C(=O)OC[C@H]1OC[C@@H](n2ccc(N)nc2=O)O1` [Compound 279, 2,2-DIMETHYL-PROPIONIC ACID 4-(4-AMINO-2-OXO-2H-PYRI- MIDIN-1-YL)-[1,3]DI- OXOLAN-2-YL METHYL ESTER], for which the “Factor (Resistance Factor = Ratio of dCK- on Wild-type CCRF-CEM)” value in test [1] was 1854 and >1205.
Turning to `CC(C)[C@H](N)C(=O)Nc1ccn([C@@H]2CO[C@H](CO)O2)c(=O)n1.O=C(O)C(F)(F)F` [Compound 280, 2-Amino-N-[1-(2-hydroxy-methyl-[1,3]dioxo-lan-4-yl)-2-oxo-1,2-di-hydro-pyrimidin-4-yl]-3-meth-yl-butyramide; trifluoroacetic acid salt], the “Factor (Resistance Factor = Ratio of dCK- on Wild-type CCRF-CEM)” value in test [1] is >53.
For the compound `Nc1ccn([C@@H]2O[C@H](CO)[C@@H](O)[C@@H]2O)c(=O)n1` [Cytarabine, cytarabine], the “effect of es transport inhibitor NBMPR on resistance of CEM cells” value with CEM cells was “significantly increased resistance”.
Take `Nc1ccn([C@@H]2O[C@H](CO)[C@@H](O)C2(F)F)c(=O)n1` [Gemcitabine, gemcitabine]: the EC50 with CEM cells (Homo sapiens, CCRF-CEM, 48 h, read-out: Chemosensitivity, 50% of the dose response curve (EC50), CEM + NBMPR (100 nM), 48 h exposure, mean ± SD) was 70 ± 18 nM. Besides, the “effect of es transport inhibitor NBMPR on resistance of CEM cells” value in the test on CEM cells is reported as “significantly increased resistance”.

The record behind these values is patent publication US20050256034A1, “Dioxolane analogs for improved inter-cellular delivery” (priority 2000, published 2005).
